Patent US20250241894A1, “TREATMENT OF MENTAL DISORDERS” (GH RESEARCH IRELAND LIMITED, priority 2022, published 2025)

What was measured:
[1] = tested on: patients with treatment-resistant major depressive disorder (TRD); experiment: Phase 1/2 clinical trial of inhaled 5-MeO-DMT in TRD: Part A single dose 12 mg or 18 mg; Part B individualized dosing regimen (IDR) 6, 12, 18 mg in a single day
Protocol: Patients were assigned to different groups. In the context of the present invention, the group who received a single, 12 mg dose and the group who underwent an intra-day individualized dosing regimen (IDR) that allowed for multiple, escalating doses (6 mg, 12 mg and 18 mg) within a single day, driven by the intensity of the patient-reported psychedelic experience are of interest.
This trial was designed in two parts. Part A was an open-label, single-arm, single-dose Phase 1 trial with two dose levels (12 mg (n=4) and 18 mg (n=4)). […] The primary endpoint of Part B was to assess the effects on the severity of depression, as assessed by the proportion of patients in remission on day seven after dosing, defined as a MADRS total score of less than or equal to 10.

[2] = tested on: Escherichia coli (WP2 uvrA pKM101); experiment: Bacterial mutation test with and without S-9; assay type: cell-based; settings: up to 5000 μg/plate, absence and presence of S-9
Protocol: (§1) These conditions included treatments at concentrations up to 5000 μg/plate (the maximum recommended concentration according to current regulatory guidelines), in the absence and in the presence of a rat liver metabolic activation system (S-9).

[3] = tested on: Salmonella typhimurium (TA98, TA100, TA1535 and TA1537); experiment: Bacterial mutation test with and without S-9; assay type: cell-based; settings: up to 5000 μg/plate, absence and presence of S-9
Protocol: as §1

[4] = Pharmacokinetics of 5-MeO-DMT and bufotenine after a single inhaled dose; assay type: in vivo, human
Protocol: Blood samples were obtained at 1; 2; 4; 7; 10; 15; 20; 30; 45 min and 1; 1.5; 2; 3; 4 hours after administration.
PK parameters were generated by algebraic analysis of the concentration versus time plots for each individual. The analysis was carried out using the software Phoenix WinNonlin 6.3.

[5] = 12 mg n=4, 2 hours, baseline 16

With COc1ccc2[nH]cc(CCN(C)C)c2c1 [5-MeO-DMT] the “MADRS Suicidal Thoughts improvement” value ([1]; 12 mg n=4, 2 hours, baseline 8) was 5 points, the “MADRS Inner Tension improvement” value ([1]; 12 mg n=4, 2 hours, baseline 13) was 11 points and the “MADRS Concentration Difficulties improvement” value [1, 5] was 9 points. For the same compound, the “MADRS Inability to Feel improvement” value [1, 5] was 7 points, the “MADRS Lassitude improvement” value [1, 5] was 6 points and the “MADRS Pessimistic Thoughts improvement” value [1, 5] was 8 points. For the same compound, the “BPRS Blunted Affect improvement” value ([1]; 12 mg n=4, 3 hours, baseline 11) was 3 points, the “BPRS Emotional Withdrawal improvement” value ([1]; 12 mg n=4, 3 hours, baseline 13) was 2 points and the “BPRS Tension improvement” value ([1]; 12 mg n=4, 3 hours, baseline 14) was 5 points. The “BPRS Guilt Feelings improvement” value ([1]; 12 mg n=4, 3 hours, baseline 18) was 9 points, the “BPRS Anxiety improvement” value ([1]; 12 mg n=4, 3 hours, baseline 25) was 14 points and the “MADRS Suicidal Thoughts improvement” value ([1]; 12 mg n=4, Day 1, baseline 8) was 3 points. For the same compound, the “BPRS Blunted Affect improvement” value ([1]; 12 mg n=4, Day 1, baseline 11) was 5 points, the “MADRS Reduced Sleep improvement” value ([1]; 12 mg n=4, Day 1, baseline 12) was 2 points and the “BPRS Emotional Withdrawal improvement” value ([1]; 12 mg n=4, Day 1, baseline 13) was 5 points. For the same compound, the “MADRS Inner Tension improvement” value ([1]; 12 mg n=4, Day 1, baseline 13) was 10 points, the “BPRS Tension improvement” value ([1]; 12 mg n=4, Day 1, baseline 14) was 8 points and the “MADRS Concentration Difficulties improvement” value ([1]; 12 mg n=4, Day 1, baseline 16) was 14 points. The “MADRS Inability to Feel improvement” value ([1]; 12 mg n=4, Day 1, baseline 16) was 15 points, the “MADRS Lassitude improvement” value ([1]; 12 mg n=4, Day 1, baseline 16) was 16 points and the “MADRS Pessimistic Thoughts improvement” value ([1]; 12 mg n=4, Day 1, baseline 16) was 9 points. For the same compound, the “BPRS Guilt Feelings improvement” value ([1]; 12 mg n=4, Day 1, baseline 18) was 13 points, the “BPRS Anxiety improvement” value ([1]; 12 mg n=4, Day 1, baseline 25) was 19 points and the “MADRS Suicidal Thoughts improvement” value ([1]; 12 mg n=4, Day 7, baseline 8) was 1 points. The “BPRS Blunted Affect improvement” value ([1]; 12 mg n=4, Day 7, baseline 11) was 6 points, the “MADRS Reduced Sleep improvement” value ([1]; 12 mg n=4, Day 7, baseline 12) was 6 points and the “BPRS Emotional Withdrawal improvement” value ([1]; 12 mg n=4, Day 7, baseline 13) was 7 points. The “MADRS Inner Tension improvement” value ([1]; 12 mg n=4, Day 7, baseline 13) was 8 points, the “BPRS Tension improvement” value ([1]; 12 mg n=4, Day 7, baseline 14) was 8 points and the “MADRS Concentration Difficulties improvement” value ([1]; 12 mg n=4, Day 7, baseline 16) was 13 points. For the same compound, the “MADRS Inability to Feel improvement” value ([1]; 12 mg n=4, Day 7, baseline 16) was 15 points, the “MADRS Lassitude improvement” value ([1]; 12 mg n=4, Day 7, baseline 16) was 13 points and the “MADRS Pessimistic Thoughts improvement” value ([1]; 12 mg n=4, Day 7, baseline 16) was 8 points. The “BPRS Guilt Feelings improvement” value ([1]; 12 mg n=4, Day 7, baseline 18) was 13 points, the “BPRS Anxiety improvement” value ([1]; 12 mg n=4, Day 7, baseline 25) was 19 points and the “MADRS Suicidal Thoughts improvement” value ([1]; IDR n=8, 2 hours, baseline 11) was 8 points. For the same compound, the “MADRS Inner Tension improvement” value ([1]; IDR n=8, 2 hours, baseline 26) was 15 points, the “MADRS Lassitude improvement” value ([1]; IDR n=8, 2 hours, baseline 27) was 17 points and the “MADRS Pessimistic Thoughts improvement” value ([1]; IDR n=8, 2 hours, baseline 28) was 21 points. The “MADRS Concentration Difficulties improvement” value ([1]; IDR n=8, 2 hours, baseline 30) was 19 points, the “MADRS Inability to Feel improvement” value ([1]; IDR n=8, 2 hours, baseline 36) was 24 points and the “BPRS Emotional Withdrawal improvement” value ([1]; IDR n=8, 3 hours, baseline 13) was 5 points. The “BPRS Blunted Affect improvement” value ([1]; IDR n=8, 3 hours, baseline 15) was 4 points, the “BPRS Tension improvement” value ([1]; IDR n=8, 3 hours, baseline 16) was 5 points and the “BPRS Guilt Feelings improvement” value ([1]; IDR n=8, 3 hours, baseline 34) was 20 points. The “BPRS Anxiety improvement” value ([1]; IDR n=8, 3 hours, baseline 37) was 18 points, the “MADRS Suicidal Thoughts improvement” value ([1]; IDR n=8, Day 1, baseline 11) was 10 points and the “BPRS Emotional Withdrawal improvement” value ([1]; IDR n=8, Day 1, baseline 13) was 5 points. The “BPRS Blunted Affect improvement” value ([1]; IDR n=8, Day 1, baseline 15) was 7 points, the “BPRS Tension improvement” value ([1]; IDR n=8, Day 1, baseline 16) was 5 points and the “MADRS Reduced Sleep improvement” value ([1]; IDR n=8, Day 1, baseline 25) was 13 points. The “MADRS Inner Tension improvement” value ([1]; IDR n=8, Day 1, baseline 26) was 20 points, the “MADRS Lassitude improvement” value ([1]; IDR n=8, Day 1, baseline 27) was 22 points and the “MADRS Pessimistic Thoughts improvement” value ([1]; IDR n=8, Day 1, baseline 28) was 24 points. The “MADRS Concentration Difficulties improvement” value ([1]; IDR n=8, Day 1, baseline 30) was 29 points, the “BPRS Guilt Feelings improvement” value ([1]; IDR n=8, Day 1, baseline 34) was 23 points and the “MADRS Inability to Feel improvement” value ([1]; IDR n=8, Day 1, baseline 36) was 34 points. For the same compound, the “BPRS Anxiety improvement” value ([1]; IDR n=8, Day 1, baseline 37) was 21 points, the “MADRS Suicidal Thoughts improvement” value ([1]; IDR n=8, Day 7, baseline 11) was 8 points and the “BPRS Emotional Withdrawal improvement” value ([1]; IDR n=8, Day 7, baseline 13) was 5 points. For the same compound, the “BPRS Blunted Affect improvement” value ([1]; IDR n=8, Day 7, baseline 15) was 7 points, the “BPRS Tension improvement” value ([1]; IDR n=8, Day 7, baseline 16) was 6 points and the “MADRS Reduced Sleep improvement” value ([1]; IDR n=8, Day 7, baseline 25) was 16 points. For the same compound, the “MADRS Inner Tension improvement” value ([1]; IDR n=8, Day 7, baseline 26) was 14 points, the “MADRS Lassitude improvement” value ([1]; IDR n=8, Day 7, baseline 27) was 24 points and the “MADRS Pessimistic Thoughts improvement” value ([1]; IDR n=8, Day 7, baseline 28) was 25 points. The “MADRS Concentration Difficulties improvement” value ([1]; IDR n=8, Day 7, baseline 30) was 21 points, the “BPRS Guilt Feelings improvement” value ([1]; IDR n=8, Day 7, baseline 34) was 24 points and the “MADRS Inability to Feel improvement” value ([1]; IDR n=8, Day 7, baseline 36) was 30 points. For the same compound, the “BPRS Anxiety improvement” value ([1]; IDR n=8, Day 7, baseline 37) was 20 points, the SAEs ([1]; Part A 12 mg and 18 mg) was “No SAEs” and the “Severity and outcome of ADRs” value ([1]; Part A 12 mg and 18 mg) was “mild and resolved spontaneously”. The “Proportion of patients in MADRS remission” value ([1]; Part A 12 mg n=4, day seven) was 50%, the “Further patients with MADRS clinical response” value ([1]; Part A 18 mg n=4, day seven) was 25% and the “Proportion of patients in MADRS remission” value ([1]; Part A 18 mg n=4, day seven) was 25%. The “Outcome of ADRs” value ([1]; Part B IDR) was “resolved spontaneously”, the SAEs ([1]; Part B IDR) was “No SAEs” and the “Proportion of patients in MADRS remission (total score <=10)” value ([1]; Part B IDR n=8, day seven) was 87.5%. For the same compound, the Mutation induction [2] was “did not induce mutation”, the Mutation induction [3] was “did not induce mutation” and the Detectability in plasma ([4]; after 3 hours, 6, 12, 18 mg) was “no longer detectable”. For the same compound, the “Accumulation upon repeated administration” value ([4]; within a time frame of 1 to 4 hours) was “No accumulation”.
